{"source": "patent US20220233561A1", "about": "“HUMAN MILK OLIGOSACCHARIDES FOR USE IN THE TREATMENT OF SYMPTOMS IN A PATIENT SUFFERING FROM NON-COELIAC WHEAT AND / OR GLUTEN SENSITIVITY” (GLYCOM A/S, priority 2016, published 2022)", "format_in_all_cases": "cell-based", "conditions_in_all_cases": "5 mg HMO/ml, compared to control cultures", "key": {"[1]": {"tested_on": "TFF3 expression in human LS174T cells", "assay": "Example 3: goblet cell gene expression by quantitative RT-PCR, TFF3", "description": "(§1) 2′-FL and LNnT are tested with respect to their ability to induce MUC2, TFF3, EIMβ, CHST5, and GAL3ST2 expression in the human LS174T cell culture model of goblet cells. The human LS174T cell line is obtained from the American Type Culture Collection (ATCC). LS174T cells are maintained in minimum essential medium (MEM) supplemented according to instructions at 37° C. in air containing 5% of CO2. 2′-FL and LNnT are dissolved in cell culture grade water to the required concentration. The LS174T cells are treated with the HMO solution containing 0 or 5 mg HMO/ml. The LS174T cells are collected and suspended in Trizol reagent and total RNA is isolated using an RNA analysis kit (Qiagen) according to the manufacturer's instructions and the RNA isolates are quantified using Nanodrop analysis (Thermo Fisher Scientific). RNA isolates are reverse transcribed using a high capacity cDNA Reverse Transcription Kit (Applied Biosystems) to create cDNA, which is then used to assess gene expression via quantitative RT-PCR. For the quantitative RT-PCR, specific TaqMAN gene expression assays are obtained from Applied Biosystems, which include expression assays for MUC2, TFF3, CHST5 and GAL3ST2. Quantitative real-time PCR is performed using TaqMAN PCR Master Mix (Applied Biosystems). […] The results are analysed using SDS 2.3 software and calculated by delta Ct method. […]"}, "[2]": {"tested_on": "CHST5 expression in human LS174T cells", "assay": "Example 3: goblet cell gene expression by quantitative RT-PCR, CHST5", "description": "as §1"}, "[3]": {"tested_on": "MUC2 expression in human LS174T cells", "assay": "Example 3: goblet cell gene expression by quantitative RT-PCR, MUC2", "description": "as §1"}, "[4]": {"tested_on": "GAL3ST2 expression in human LS174T cells", "assay": "Example 3: goblet cell gene expression by quantitative RT-PCR, GAL3ST2", "description": "as §1"}}, "data": [{"compound": "CC(=O)N[C@H]1[C@H](O[C@H]2[C@@H](O)[C@@H](CO)O[C@@H](O[C@H]3[C@H](O)[C@@H](O)C(O)O[C@@H]3CO)[C@@H]2O)O[C@H](CO)[C@@H](O[C@@H]2O[C@H](CO)[C@H](O)[C@H](O)[C@H]2O)[C@@H]1O", "note": "(mixture of isomers) [LNnT, lacto-N-neotetraose]", "values": [{"measurement": "TFF3 gene expression", "setting": "[1]", "result": "increases the expression"}, {"measurement": "CHST5 gene expression", "setting": "[2]", "result": "minimal induction"}, {"measurement": "MUC2 gene expression", "setting": "[3]", "result": "increases the expression"}, {"measurement": "GAL3ST2 gene expression", "setting": "[4]", "result": "lack of induction"}]}]}
